ChEMBL document CHEMBL3272337, “Synthesis of a fragment of human parathyroid hormore, hPTH-(44-68)” (J Med Chem, 1977)
Active and inactive are the calls of the source. Peptide text beside a SMILES is read from it.

What was measured:
[1] = biological target: T1, Adenylate cyclase (Homo sapiens) (UniProt Q8NFM4+O60503+Q08828+P40145+O60266+O95622+O43306+Q08462+P51828); test: Agonist activity at adenylyl cyclase (unknown origin) at 1.35 x 10^-4 M; assay type: protein assay
Gallus gallus = test: Induction of PTH-like activity in iv dosed chick by hypercalcemic assay; assay type: functional, organism-based
[2] = biological target: T1, Adenylate cyclase (Homo sapiens); test: Inhibition of bPTH-stimulated adenylyl cyclase (unknown origin) activity at 500:1 compound to native hormone molar ratio; assay type: protein assay

CC(C)C[C@H](NC(=O)[C@H](CO)NC(=O)[C@H](CCCCN)NC(=O)[C@H](CCC(=O)O)NC(=O)[C@H](Cc1cnc[nH]1)NC(=O)[C@H](CO)NC(=O)[C@H](CCC(=O)O)NC(=O)[C@@H](NC(=O)[C@H](CC(C)C)NC(=O)[C@@H](NC(=O)[C@H](CC(N)=O)NC(=O)[C@H](CC(=O)O)NC(=O)[C@H](CCC(=O)O)NC(=O)[C@H](CCCCN)NC(=O)[C@H](CCCCN)NC(=O)[C@H](CCCNC(=N)N)NC(=O)[C@@H]1CCCN1C(=O)[C@H](CCCNC(=N)N)NC(=O)[C@H](CCC(N)=O)NC(=O)[C@H](CO)NC(=O)CNC(=O)[C@H](C)NC(=O)[C@H](CC(=O)O)NC(=O)[C@@H](N)CCCNC(=N)N)C(C)C)C(C)C)C(=O)NCC(=O)O (H-RDAGSQRPRKKEDNVLVESHEKSLG-OH)
inactive: Activity [1] | Activity (Gallus gallus) | inhibition [2]
